e = 2'-O-(2-methoxyethyl) (MOE); d = 2'-deoxy (DNA)
Assays:
Assay type in all cases: in vivo, mouse
[1] = test system: intrinsic pathway of blood coagulation; assay: Activated Partial Thromboplastin Time (aPTT) in platelet poor plasma of treated mice, reported as INR
Protocol: (§1) Prothrombin Time (PT) and Activated Partial Thromboplastin Time (aPTT) were measured using platelet poor plasma (PPP) from mice treated with ISIS 403102. PT and aPTT values provided in Table 20 are reported as International Normalized Ratio (INR) values. INR values for PT and aPTT were determined by dividing the PT or aPTT value for the experimental group by the PT or aPTT for the PBS treated group. This ratio was then raised to the power of the International Sensitivity Index (ISI) of the tissue factor used.
as §1, with “in Table 22 are reported” for “in Table 20 are reported”, “experimental group (i.e. 50 mg/kg treatment with ISIS 403102) by the” for “experimental group by the”
as §1, with “in Table 24 are reported” for “in Table 20 are reported”, “experimental group (i.e. 50 mg/kg treatment with ISIS 403102) by the” for “experimental group by the”

[2] = test system: murine Factor 7 protein; assay: Plasma Factor 7 protein, Factor 7 chromogenic assay (Hyphen BioMed), BALB/c mice; settings: for % inhibition of murine Factor 7 protein (plasma): relative to PBS control
Protocol: BALB/c mice were treated with ISIS 403102 ([…], target site 11336, incorporated herein as SEQ ID NO: 161). BALB/c mice were injected subcutaneously with 5 mg/kg, 10 mg/kg, 25 mg/kg, or 50 mg/kg of ISIS 403102 twice a week for 3 weeks. A control group of mice was injected subcutaneously with PBS twice a week for 3 weeks. After the treatment period, whole liver was collected for RNA and protein analysis, and plasma was collected for clotting analysis (PT/aPTT).
Plasma Factor 7 protein was measured using a Factor 7 chromogenic assay (Hyphen BioMed). […] Results are presented as percent inhibition of Factor 7, relative to control.

[3] = test system: platelet factor-4 (PF-4); assay: FeCl3 induced venous thrombosis (VT) model, real-time RT-PCR quantification of PF-4 in vena cava as measure of thrombus formation; settings: for PF-4 (percent of PF-4 mRNA as compared to the PBS + FeCl3 control) / PF-4 (percentage compared to PBS controls): BALB/c mice; for PF-4 (percent of PF-4 mRNA as compared to the PBS + FeCl3 control): no Plavix; for PF-4 (percentage compared to PBS controls): vena cava
Protocol: Two control groups of BALB/c mice were treated with PBS, administered subcutaneously twice a week for 3 weeks. Thrombus formation was induced with FeCl3 in half of the mice while the rest of the mice were assayed for tail bleeding. […] Thrombus formation was induced with FeCl3 in all groups of the VT mice except the first control group.
(§2) In mice undergoing FeCl3 treatment, thrombus formation was induced by applying a piece of filter paper (2×4 min) pre-saturated with 10% FeCl3 solution directly on the vena cava. After 3 minutes of exposure, the filter paper was removed. Thirty minutes after the filter paper application, a fixed length of the vein containing the thrombus was dissected out for platelet analysis. Liver was collected for RNA analysis.
(§3) Real-time RT-PCR quantification of platelet factor-4 (PF-4) was used to quantify platelets in the vena cava as a measure of thrombus formation.
Six additional groups of BALB/c mice was treated with 0.5 mg/kg, 1 mg/kg, 2 mg·kg, 3 mg/kg, 4 mg/kg, or 5 mg/kg of warfarin, administered intraperioneally daily for 6 days. Four hours after the last dose of warfarin, mice were sacrificed. A control group of BALB/c mice were treated with PBS, administered subcutaneously twice a week for 3 weeks. Two days after the last dose of PBS, mice were anesthetized with 150 mg/kg ketamine mixed with 10 mg/kg xylazine administered by intraperitoneal injection. Thrombus formation was induced with FeCl3 in groups of mice except the first control group.
as §2, with “mm)” for “min)”
as §3
Thrombus formation was induced with FeCl3 in all of the mice except the first […] control groups. All mice were anesthetized with 150 mg/kg of ketamine mixed with 10 mg/kg of xylazine administered by intraperitoneal injection.
After 3 minutes of exposure, the filter paper was removed. Thirty minutes after the filter paper application, a fixed length of the vein containing the thrombus was dissected out for platelet analysis.
Real-time PCR quantification of PF-4 was used to quantify platelets in the vena cava as a measure of thrombus formation. […] Data is presented as percent of PF-4 mRNA as compared to the PBS+ FeCl3 control, […]

CCATAGAACAGCTTCACAGG (sugars from the 5' end e5 d10 e5, backbone and methylation of C not given here) [ISIS 403102]
aPTT INR ([1]; BALB/c mice, 5 mg/kg s.c. twice a week for 3 weeks): 1.05 | aPTT INR ([1]; BALB/c mice, 10 mg/kg s.c. twice a week for 3 weeks): 1.04 | aPTT INR ([1]; BALB/c mice, 25 mg/kg s.c. twice a week for 3 weeks): 1.09 | aPTT INR ([1]; BALB/c mice, 50 mg/kg s.c. twice a week for 3 weeks): 1.16 | aPTT INR ([1]; BALB/c mice, 50 mg/kg, 1 dose, 1 day after last dose): 1.08 | aPTT INR ([1]; BALB/c mice, 50 mg/kg, 1 dose, 3 days after last dose): 1.10 | aPTT INR ([1]; BALB/c mice, 50 mg/kg, 2 doses, 3 days after last dose): 1.29 | aPTT INR ([1]; BALB/c mice, 50 mg/kg, 4 doses, 3 days after last dose): 1.53 | aPTT INR ([1]; BALB/c mice, 50 mg/kg, 6 doses, 2 days after last dose): 1.62 | aPTT INR ([1]; BALB/c mice, 50 mg/kg, 6 doses, 7 days after last dose): 1.67 | aPTT INR ([1]; BALB/c mice, 50 mg/kg, 6 doses, 14 days after last dose): 1.25 | aPTT INR ([1]; BALB/c mice, 50 mg/kg, 6 doses, 28 days after last dose): 0.90 | aPTT INR ([1]; BALB/c mice, 50 mg/kg, 6 doses, 42 days after last dose): 1.00 | aPTT INR ([1]; BALB/c mice, 50 mg/kg, 6 doses, 56 days after last dose): 0.98 | aPTT INR ([1]; BALB/c mice, single dose 50 mg/kg, day 1): 1.00 | aPTT INR ([1]; BALB/c mice, single dose 50 mg/kg, day 2): 1.05 | aPTT INR ([1]; BALB/c mice, single dose 50 mg/kg, day 3): 1.24 | aPTT INR ([1]; BALB/c mice, single dose 50 mg/kg, day 4): 1.15 | aPTT INR ([1]; BALB/c mice, single dose 50 mg/kg, day 6): 1.23 | aPTT INR ([1]; BALB/c mice, single dose 50 mg/kg, day 8): 1.18 | aPTT INR ([1]; BALB/c mice, single dose 50 mg/kg, day 12): 1.18 | aPTT INR ([1]; BALB/c mice, single dose 50 mg/kg, day 24): 1.02 | aPTT INR ([1]; BALB/c mice, single dose 50 mg/kg, day 56): 0.97 | aPTT compared to the control ([1]; Example 11, 5-50 mg/kg sc twice a week for 3 weeks): slightly prolonged | aPTT over time ([1]; Example 13, 6 doses, day 7 to day 56): aPTT decreased | aPTT INR ([1]; single dose 50 mg/kg, day 4): 1.24 INR | aPTT INR ([1]; single dose 50 mg/kg, day 56): 0.97 INR | aPTT INR ([1]; single dose 50 mg/kg, starting value (day not given, day 1 implied)): 1.00 INR | % inhibition of murine Factor 7 protein (plasma) ([2]; 5 mg/kg s.c. twice a week for 3 weeks): 71% | % inhibition of murine Factor 7 protein (plasma) ([2]; 10 mg/kg s.c. twice a week for 3 weeks): 88% | % inhibition of murine Factor 7 protein (plasma) ([2]; 25 mg/kg s.c. twice a week for 3 weeks): 99% | % inhibition of murine Factor 7 protein (plasma) ([2]; 50 mg/kg s.c. twice a week for 3 weeks): 99% | reduction of murine Factor 7 protein over PBS control ([2]; 5-50 mg/kg sc twice a week for 3 weeks, plasma): dose-dependent reduction | PF-4 (percent of PF-4 mRNA as compared to the PBS + FeCl3 control) ([3]; with FeCl3, ISIS 403102 20 mg/kg s.c. twice a week for three weeks): 39% | PF-4 (percent of PF-4 mRNA as compared to the PBS + FeCl3 control) ([3]; without FeCl3, ISIS 403102 20 mg/kg s.c. twice a week for three weeks): 2% | PF-4 in comparison to the PBS control ([3]; Example 14, 25, 37.5 or 50 mg/kg sc twice a week for 3 weeks): reduction of PF-4 | PF-4 in comparison to the PBS control ([3]; Example 16, dosages of 5 mg/kg and higher, sc twice a week for 3 weeks): dose-dependent reduction of PF-4 | PF-4 (percentage compared to PBS controls) ([3]; FeCl3 (Example 16), 1 mg/kg s.c. twice a week for 3 weeks): 120% | PF-4 (percentage compared to PBS controls) ([3]; FeCl3 (Example 16), 3 mg/kg s.c. twice a week for 3 weeks): 112% | PF-4 (percentage compared to PBS controls) ([3]; FeCl3 (Example 16), 5 mg/kg s.c. twice a week for 3 weeks): 69% | PF-4 (percentage compared to PBS controls) ([3]; FeCl3 (Example 16), 10 mg/kg s.c. twice a week for 3 weeks): 22% | PF-4 (percentage compared to PBS controls) ([3]; FeCl3 (Example 16), 20 mg/kg s.c. twice a week for 3 weeks): 41% | PF-4 (percentage compared to PBS controls) ([3]; FeCl3 (Example 16), 40 mg/kg s.c. twice a week for 3 weeks): 38% | PF-4 (percentage compared to PBS controls) ([3]; FeCl3, 25 mg/kg s.c. twice a week for 3 weeks): 34% | PF-4 (percentage compared to PBS controls) ([3]; FeCl3, 37.5 mg/kg s.c. twice a week for 3 weeks): 24% | PF-4 (percentage compared to PBS controls) ([3]; FeCl3, 50 mg/kg s.c. twice a week for 3 weeks): 24%

Source: patent US20120214862A1, “MODULATION OF FACTOR 7 EXPRESSION” (ISIS Pharmaceuticals, Inc., priority 2009, published 2012)
